Patent US20120064056A1, “DICHLORACETATE IN COMBINATION WITH CLINICALLY HIGH LEVELS OF CARDIOPROTECTIVE OR HEMODYNAMIC DRUGS” (THE GOVERNORS OF THE UNIVERSITY OF ALBERTA TEC Edmonton, priority 2002, published 2012)

Tests used:
[1] = test system: isolated rat hearts subjected to global ischemia; test: Isolated working rat heart, global no flow ischemia and reperfusion: cardiac function and efficiency
Method: Hearts were trimmed of excess tissue, and the pulmonary artery and the opening to the left atrium were then cannulated. After 15 min of Langendorff perfusion, hearts were switched to the working mode by clamping the aortic inflow line from the Langendorff reservoir and opening the left atrial inflow line. The perfusate was delivered from an oxygenator into the left atrium at a constant preload pressure of 11 mm Hg. […] The afterload was set at a hydrostatic pressure of 80 mm Hg. […] Palmitate was bound to the albumin as described previously ([…]., et al. J Biol. Chem. 267:3825-3831 (1992)). […] For the aerobic model hearts, all tested compounds were introduced into the heart 5 minutes into the working mode following Langendorff Perfusion. Spontaneously beating hearts were used in all perfusions. Heart rate and aortic pressure were measured with a Biopac Systems Inc. blood pressure transducer connected to the aortic outflow line. Cardiac output and aortic flow were measured with Transonic […] ultrasonic flow probes in the preload and afterload lines, respectively. Coronary flow was calculated as the difference between cardiac output and aortic flow. […] Cardiac work was calculated as the product of systolic pressure and cardiac output. Cardiac efficiency was defined as a ratio of cardiac work to MVO2. […] All tested compounds were introduced into the perfusate five minutes prior to reperfusion.

isolated rat hearts = test: Isolated working rat heart, aerobic perfusion: cardiac function and efficiency; parameters: Cardiac Work (CO · PSP): unit not given beside the values
Method: Rat hearts were cannulated for isolated working heart perfusions as described in “An imbalance between glycolysis and glucose oxidation is a possible explanation for the detrimental effects of high levels of fatty acids during aerobic reperfusion of ischemic hearts.”, (J Pharmacol Exp Ther. 264:135 (1993); herein incorporated by reference. In brief, male Sprague-Dawley rats (0.3-0.35 kg) were anesthetized with pentobarbital sodium (60 mg/kg IP) and hearts were quickly excised, the aorta was cannulated and a retrograde perfusion at 37° C. was initiated at a hydrostatic pressure of 60 mm Hg. Hearts were trimmed of excess tissue, and the pulmonary artery and the opening to the left atrium were then cannulated. After 15 min of Langendorff perfusion, hearts were switched to the working mode by clamping the aortic inflow line from the Langendorff reservoir and opening the left atrial inflow line. The perfusate was delivered from an oxygenator into the left atrium at a constant preload pressure of 11 mm Hg. Perfusate was ejected from spontaneously beating hearts into a compliance chamber (containing 1 ml of air) and into the aortic outflow line. The afterload was set at a hydrostatic pressure of 80 mm Hg. All working hearts were perfused with Krebs'-Henseleit solution containing calcium 2.5 mmol/L, glucose 5.5 mmol/L, 3% bovine serum albumin (Fraction V, Boehringer Mannheim), and with 1.2 mmol/L palmitate. Palmitate was bound to the albumin as described previously (Saddik M., et al. J Biol. Chem. 267:3825-3831 (1992)). The perfusate was recirculated, and pH was adjusted to 7.4 by bubbling with a mixture containing 95% O2 and 5% CO2. For the aerobic model hearts, all tested compounds were introduced into the heart 5 minutes into the working mode following Langendorff Perfusion.
Spontaneously beating hearts were used in all perfusions. Heart rate and aortic pressure were measured with a Biopac Systems Inc. blood pressure transducer connected to the aortic outflow line. Cardiac output and aortic flow were measured with Transonic T206 ultrasonic flow probes in the preload and afterload lines, respectively. Coronary flow was calculated as the difference between cardiac output and aortic flow. The O2 contents of the perfusate entering and leaving the heart were measured using YSI™ micro oxygen electrodes placed in the preload and pulmonary arterial lines, respectively. Myocardial O2 consumption (MVO2) was calculated according to the Fick principle, using coronary flow rates and the arteriovenous difference in perfusate O2 concentration. Cardiac work was calculated as the product of systolic pressure and cardiac output. Cardiac efficiency was defined as a ratio of cardiac work to MVO2.

[2] = post-ischemic reperfusion, DCA 2 mM, digoxin 3 nM, metoprolol 1 μM
[3] = aerobically perfused, DCA 2 mM, diltiazem 0.8 μM, digoxin 3 nM, metoprolol 1 μM, dobutamine 1 μM

COCCc1ccc(OCC(O)CNC(C)C)cc1 (stereo not shown) [Metoprolol, metoprolol]
Aortic Outflow [1, 2]: 11 ± 5 mL/min
Cardiac Output [1, 2]: 24 ± 9 mL/min
Coronary Flow [1, 2]: 13 ± 4 mL/min
HR × PSP [1, 2]: 13 ± 6 beats · min^−1 · mmHg · 10^−2
Heart Rate [1, 2]: 185 ± 40 beats · min^−1
Peak Systolic Pressure [1, 2]: 73 ± 17 mmHg
functional parameters (cardiac function, cardiac efficiency) during the reperfusion period compared to control (Table 1, Table 2), in words ([1]; reperfusion period): significantly improved
recovery of cardiac function of previously ischemic hearts compared to control, in words ([1]; reperfusion period, FIG. 11, FIG. 17): does not change cardiac function
recovery of cardiac work of previously ischemic hearts compared to control, in words ([1]; reperfusion period, FIG. 12, FIG. 18): significantly improve the recovery
recovery of oxygen consumption of previously ischemic hearts, in words ([1]; reperfusion period, FIG. 13, FIG. 19): There does not appear to be significant differences
recovery of cardiac efficiency of previously ischemic hearts compared to control, in words ([1]; reperfusion period, FIG. 14, FIG. 20): does not
Aortic Outflow (isolated rat hearts; [3]): 35 ± 5 mL/min
Cardiac Efficiency (CW · O2^−1) (isolated rat hearts; [3]): 1.85 ± 0.15
Cardiac Output (isolated rat hearts; [3]): 55 ± 8 mL/min
Cardiac Work (CO · PSP) (isolated rat hearts; [3]): 71 ± 10
Coronary Flow (isolated rat hearts; [3]): 20 ± 3 mL/min
HR × PSP (isolated rat hearts; [3]): 32 ± 4 beats · min^−1 · mmHg · 10^−2
Heart Rate (isolated rat hearts; [3]): 250 ± 26 beats · min^−1
O2 Consumption (isolated rat hearts; [3]): 40 ± 9 μmolO2 · g dry wt^−1 · min^−1
Peak Systolic Pressure (isolated rat hearts; [3]): 130 ± 2 mmHg
effect on functional parameters shown in Table 2 incl. O2 consumption and cardiac efficiency, in words (isolated rat hearts; normal hearts, aerobic, compared to control): no significant effect
effect on functional parameters shown in Table 1 (heart rate, peak systolic pressure, HR×PSP), in words (isolated rat hearts; normal hearts, aerobic, compared to control (DCA and dobutamine: compared to dobutamine alone)): no significant effect
